From patent publication US5994349A, “3-carboalkoxy-2, 3-dihydro-1H-phenothiazin-4[10H]-one derivatives” (priority 1997, dated 1999)
Like-named read-outs stand apart in the source and are kept apart here.

Columns and labels:
[1] = rotorod toxicity, oral rat (Phase VIA/VIB); assay type: in vivo, male Sprague-Dawley rats; conditions: rat, in vivo, po
Procedure: (§1) Initial evaluations for anticonvulsant activity include phases I, VIA and VIB test procedures. These tests are performed intraperitoneally in male Carworth Farms No. 1 (CF1) mice, weighing 18-25 g (Phase I) or orally in male Sprague-Dawley rats, weighing 100-150 g (Phases VIA and VIB). The evaluation is based on three tests: maximal electroshock (MES), subcutaneous (scMet), and the rotorod test for neurological toxicity (Tox). (a) Anticonvulsant Screening Project, Antiepileptic Drug Development Program, National Institutes of Health, DHEW Publ (NIH)(U.S.) 1978, NIH 78-1093. (b) Porter, R. J.; Cereghino, J. J.; Gladding, G. D.; Hessie, B. J.; Kupferberg, H. J.; Scoville, B.; White, B. G. Antiepileptic drug development program. Cleveland Clin. Q. 1984, 51, 293-305. (c) Krall, R. L.; Penry, J. K.; White, B. G.; Kupferberg, H. J.; Swinyard, E. A. Antiepileptic drug development: II. Anticonvulsant drug screening. Epilepsia 1978, 19, 400-428. In the MES test, maximal electroshock seizures are elicited with a 60- cycle alternating current of 50 mA intensity (5-7 times that necessary to elicit minimal electroshock seizures) delivered via corneal electrodes for 0.2 seconds. A drop of 0.9% saline is placed on the eye prior to application of the electrodes in order to […]. Abolition of the hind limb tonic extension component of the seizure is defined as protection and results are expressed as the number of animals protected/the number of animals tested.
(§2) The rotorod test is used to evaluate neurotoxicity. The animal is placed on a 1 inch diameter knurled plastic rod rotating at 6 rpm. Normal mice can remain on a rod rotating at this speed indefinitely.
(§3) To differentiate the results between different rodent species, 4b (X=H), as well as 4a (R=H), 4e (R=Cl), 4f (R=Cl) and 4i (R=CH3) are subsequently evaluated for oral (po) activity in the rat (Phase VIA or VIB).

[2] = system: maximal electroshock seizures; test: maximal electroshock (MES) test, oral rat (Phase VIA/VIB); assay type: in vivo, male Sprague-Dawley rats; conditions: for ED50: MES, Phase VIB
Procedure: as §1, §3

[3] = system: threshold tonic extension electroshock seizures; test: Threshold Tonic Extension (TTE) test, mice ip; assay type: in vivo; conditions: 100 mg/kg
Text: (§4) Piredda, S. G.; Woodhead, J. H.; Swinyard, E. A. Effect of stimulus intensity on the profile of anticonvulsant activity of phenytoin, ethosuximide and valproate. J. Pharmacol. Exp. Ther. 1985, 232, 741-745. The TTE test is a clinically nonselective, electroconvulsive seizure model that identifies compounds that raise seizure threshold as well as those that prevent seizure spread. […] The TTE test is similar to the MES screen but uses a lower level of electrical current. The lower current makes the TTE test more sensitive, but less discriminate than the MES screen. This ability makes the model attractive because it allows for the identification of compounds that may have been omitted by the standard identification screen. […] These TTE active compounds may represent compounds acting by novel mechanisms.
Twenty mice are pretreated with 100 mg/kg of the test compound. […] This stimulation produces a TTE seizure in the animals. For each time interval, results are expressed as a ratio of the number of animals protected over the number of animals tested.

[4] = system: pentylenetetrazol seizures; test: subcutaneous pentylenetetrazol (scMet) test, Phase I, mice ip; assay type: in vivo, male Carworth Farms No. 1 (CF1) mice; conditions: Mus musculus, mice ip
Procedure: as §1
In the sc MET test, eighty-five mg/kg of pentylenetetrazol, which induces seizures in more than 95% of mice, is administered as a 0.5% solution subcutaneously in the posterior midline. The animal is observed for 30 minutes. Failure to observe even a threshold seizure (a single episode of clonic spasms of at least 5 seconds duration) is defined as protection and the results are expressed as the number of animals protected/ the number of animals tested. […]

[5] = system: maximal electroshock seizures; test: maximal electroshock (MES) test, Phase I, mice ip; assay type: in vivo, male Carworth Farms No. 1 (CF1) mice; conditions: for responders at 30 mg/kg / responders at 100 mg/kg / responders at 300 mg/kg / responders at 10 mg/kg: Mus musculus
Procedure: as §1
In phase I, compounds are suspended in 0.5% aqueous methylcellulose and are administered intraperitoneally at three dosage levels (30, 100, and 300 mg/kg) with anticonvulsant activity and motor impairment noted 30 min and 4 h (and in some cases 2 h and 6 h) after administration.

[6] = system: maximal electroshock seizures; test: MES confirmation of TTE test, mice ip; assay type: in vivo; conditions: 100 mg/kg
Procedure: as §1, §4
Twenty mice are pretreated with 100 mg/kg of the test compound. At several time intervals (15 min, 30 min, 1 h, 2 h and 4 h) post treatment with the test compound, four mice at each time point are challenged with 12.5 mA of electrical current for 0.2 sec via corneal electrodes. This stimulation produces a TTE seizure in the animals. For each time interval, results are expressed as a ratio of the number of animals protected over the number of animals tested.

[7] = system: neurotoxicity (rotorod); test: rotorod test for neurological toxicity (Tox), Phase I, mice ip; assay type: in vivo, male Carworth Farms No. 1 (CF1) mice
Procedure: as §1
The rotorod test is used to evaluate neurotoxicity. The animal is placed on a 1 inch diameter knurled plastic rod rotating at 6 rpm. Normal mice can remain on a rod rotating at this speed indefinitely. […]

[8] = system: neurotoxicity (rotorod); test: rotorod toxicity, oral rat (Phase VIA/VIB); assay type: in vivo, male Sprague-Dawley rats; conditions: rat oral, 30 mg/kg
Procedure: as §1, §2, §3

[9] = 0.5 h, 30 min, read-out: scMet 30 min
[10] = 4 h, read-out: MES 4 h (converted)
[11] = 0.5 h, 30 min, read-out: MES 30 min (converted)

With `COC(=O)[C@@H]1C(=O)C=C(Nc2ccc(Cl)cc2)C[C@H]1C` (relative stereo) [Compound 1, methyl 4-[(4'-chlorophenyl)-amino]-6-methyl-2-oxo-3-cyclohexene-1-carboxylate, reference compound] the TD50 [1] was greater than 380 mg/kg, the responders at 10 mg/kg ([2]; 0.25 h) was 75% and the responders at 10 mg/kg ([2]; 1.00 h) was 100%. The responders at 10 mg/kg ([2]; 2.00 h) was 100%, the responders at 10 mg/kg ([2]; 4.00 h) was 75% and the responders at 10 mg/kg ([2]; 0.5 h, 0.50 h) was 100%. For the same compound, the ED50 ([2]; first test, read-out: ED50) was 5.8 mg/kg, the “MES (repeat test)” value ([2]; repeat test, 0.50 h) was 3/4 and the “MES (repeat test)” value ([2]; repeat test, 1.00 h) was 2/4. For the same compound, the “MES (repeat test)” value ([2]; repeat test, 2.00 h) was 1/4.

For `CC1CC(=O)C2=C(C1)Nc1ccccc1S2` (centres unmarked) [Compound 4d, 2-Methyl-2,3-dihydro-1H-phenothiazin-4[10H] -one], the “TTE Result” value ([3]; 0.25 h) was 1/4, the “TTE Result (repeat test)” value ([3]; 0.25 h) was 2/4 and the “TTE Result” value ([3]; 0.50 h) was 3/4. The “TTE Result (repeat test)” value ([3]; 0.50 h) was 2/4, the “TTE Result” value ([3]; 1.00 h) was 1/4 and the “TTE Result (repeat test)” value ([3]; 1.00 h) was 0/4. For the same compound, the “TTE Result” value ([3]; 2.00 h) was 3/4, the “TTE Result (repeat test)” value ([3]; 2.00 h) was 0/4 and the “TTE Result” value ([3]; 4.00 h) was 0/4. For the same compound, the “TTE Result (repeat test)” value ([3]; 4.00 h) was 0/4, the “TTE Result (repeat test)” value ([3]; 6.00 h) was 1/4 and the responders at 30 mg/kg [4, 9] was 0%. It also gave a responders at 100 mg/kg [4, 9] of 0%, a responders at 300 mg/kg ([4]; 0.5 h, 30 min, read-out: scMet 30 min (converted)) of 0% and a responders at 30 mg/kg ([4]; 4 h, read-out: scMet 4 h) of 0%. The responders at 100 mg/kg ([4]; 4 h, read-out: scMet 4 h) was 0%, the responders at 300 mg/kg ([4]; 4 h, read-out: scMet 4 h (converted)) was 0% and the responders at 30 mg/kg ([5]; 4 h, read-out: MES 4 h) was 0%. The responders at 100 mg/kg [5, 10] was 0%, the responders at 300 mg/kg [5, 10] was 0% and the responders at 30 mg/kg [5, 11] was 0%. The responders at 100 mg/kg [5, 11] was 0%, the responders at 300 mg/kg [5, 11] was 0% and the “phase I activity” value ([5]; Phase I, in words) was “inactive”. For the same compound, the MES confirmation ([6]; 0.25 h) was 0/4, the “MES confirmation (repeat test)” value ([6]; 0.25 h) was 1/4 and the MES confirmation ([6]; 0.50 h) was 3/4. For the same compound, the “MES confirmation (repeat test)” value ([6]; 0.50 h) was 1/4, the MES confirmation ([6]; 1.00 h) was 1/4 and the MES confirmation ([6]; 2.00 h) was 0/4. For the same compound, the “Tox 30 min” value ([7]; 30 mg/kg) was 0/4, the “Tox 4 h” value ([7]; 30 mg/kg) was 0/2 and the “Tox 30 min” value ([7]; 100 mg/kg) was 0/8. For the same compound, the “Tox 4 h” value ([7]; 100 mg/kg) was 0/4, the “Tox 30 min” value ([7]; 300 mg/kg) was 0/4 and the “Tox 4 h” value ([7]; 300 mg/kg) was 0/2.

For `CCOC(=O)[C@@H]1C(=O)C2=C(C[C@H]1C)Nc1ccccc1S2` (relative stereo) [Compound 4b, 3-Carbethoxy-2-methyl-2,3-dihydro-1H-phenothiazin-4[10H] -one], the Tox ([8]; 0.25 h) was 0/4, the Tox ([8]; 0.50 h) was 1/2 and the Tox ([8]; 1.00 h) was 0/4. For the same compound, the Tox ([8]; 2.00 h) was 0/4, the Tox ([8]; 4.00 h) was 0/4 and the TD50 [1] was greater than 500 mg/kg. It also gave a responders at 10 mg/kg [4, 9] of 0%, a responders at 30 mg/kg [4, 9] of 0% and a responders at 100 mg/kg [4, 9] of 0%. For the same compound, the responders at 10 mg/kg ([4]; 4 h, read-out: scMet 4 h) was 0%, the responders at 30 mg/kg ([4]; 4 h, read-out: scMet 4 h) was 0% and the responders at 100 mg/kg ([4]; 4 h, read-out: scMet 4 h) was 0%. The responders at 10 mg/kg ([5]; 4 h, read-out: MES 4 h) was 0%, the responders at 30 mg/kg ([5]; 4 h, read-out: MES 4 h) was 0% and the responders at 100 mg/kg [5, 10] was 0%. For the same compound, the responders at 10 mg/kg ([5]; 0.5 h, 30 min, read-out: MES 30 min) was 0%, the responders at 30 mg/kg [5, 11] was 33.3% and the responders at 100 mg/kg [5, 11] was 100%. The responders at 30 mg/kg ([2]; 0.25 h) was 75%, the responders at 30 mg/kg ([2]; 1.00 h) was 50% and the responders at 30 mg/kg ([2]; 2.00 h) was 0%. The responders at 30 mg/kg ([2]; 4.00 h) was 100%, the responders at 30 mg/kg ([2]; 0.5 h, 0.50 h) was 25% and the ED50 ([2]; repeat test, read-out: ED50 (repeat test)) was 47.2 mg/kg. For the same compound, the “protective index (TD50/ED50)” value ([2]; repeat test (ED50 47.2, TD50 >500 mg/kg)) was greater than 10.6, the “Tox 30 min” value ([7]; 10 mg/kg) was 0/4 and the “Tox 4 h” value ([7]; 10 mg/kg) was 0/2. For the same compound, the “Tox 30 min” value ([7]; 30 mg/kg) was 0/8, the “Tox 4 h” value ([7]; 30 mg/kg) was 0/4 and the “Tox 30 min” value ([7]; 100 mg/kg) was 0/4. The “Tox 4 h” value ([7]; 100 mg/kg) was 0/2.
